According to patent US12568967B2, “Compositions comprising pyridine carboxylate herbicides with synthetic auxin herbicides or auxin transport inhibitors” (priority 2018, dated 2026):

What was measured:
[1] = test system: Triticum aestivum (spring wheat, TRZAS); format: in vivo
[2] = test system: Anthemis arvensis (field chamomile, ANTAR); assay: Greenhouse postemergence trial ANTAR; format: in vivo
[3] = test system: Cyanus segetum (cornflower, CENCY); assay: Greenhouse postemergence trial CENCY; format: in vivo
Description: (§1) Seeds of the desired test plant species were planted in a 90:10% v/v (volume/volume) mixture of PRO-MIX® BX (Premier Tech Horticulture, Quakertown, PA, USA) and PROFILE® GREENS GRADE™ (Profile Products LLC, Buffalo Grove, IL, USA) planting mixture, which typically has a pH of 5.2 to 6.2 and an organic matter content of at least 50 percent, in plastic pots with a surface area of 103.2 square centimeters (cm^2). […] The plants were grown for 7-36 days (d) in a greenhouse with an approximate 14-hour (h) photo-period which was maintained at about 23° C. during the day and 22° C. during the night. Nutrients and water were added on a regular basis and supplemental lighting was provided with overhead metal halide 1000-Watt lamps as necessary. The plants were employed for testing when they reached the second or third true leaf stage.
(§2) Emulsifiable concentrates of each of each pyridine carboxylate herbicide (Compound A or Compound B) were prepared at 100 grams acid equivalent per liter (g ae/L). The emulsifiable concentrates also included a safener, cloquintocet-mexyl, at 120 grams active ingredient per liter (g ai/L), unless otherwise noted below. An aliquot of each emulsifiable concentrate was placed in a 25 mL glass vial and diluted with an aqueous mixture of 1.25% (v/v) ACTIROB® B esterified rapeseed oil (Bayer Crop Science, Research Triangle Park, NC, USA) or MSO® Concentrate with LECI-TECH® methylated soybean oil (Loveland Products, Loveland, CO, USA) to obtain concentrated stock solutions at the highest application rate for each herbicide, based upon a 12 milliliter (mL) application volume at a rate of 187 liters per hectare (L/ha). The concentrated stock solutions were further diluted with an aqueous mixture of 1.25% v/v ACTIROB® B or MSO® Concentrate with LECI-TECH® to obtain stock solutions at reduced application rates for each herbicide. Spray solutions of the herbicide combinations (Compound A or Compound B plus synthetic auxin herbicide or auxin transport inhibitor) were prepared by adding weighed amounts or aliquots of the synthetic auxin herbicide or auxin transport inhibitor to the stock solutions of Compound A or Compound B to form 12-mL spray solutions in two-way combinations.
(§3) The spray solutions were applied to the plant material with an overhead Mandel track sprayer equipped with 8002E nozzles calibrated to deliver 187 L/ha over an application area of 0.503 square meters (m^2) at a spray height of 18 inches (43 centimeters (cm)) above the average plant canopy. Control plants were sprayed in the same manner with the solvent blank. All pyridine carboxylate herbicide (component a) application rates are given as “g ae/ha” and all synthetic auxin herbicide or auxin transport inhibitor (component b) application rates are given as “g ai/ha.”
(§4) The treated plants and control plants were placed in a greenhouse as described above and watered by sub-irrigation to prevent wash-off of the test compounds. After 20-22 d, the condition of the test plants as compared with that of the control plants was determined visually and scored on a scale of 0 to 100 percent where 0 corresponds to no injury and 100 corresponds to complete kill.

[4] = test system: Galium aparine (cleavers, GALAP); assay: Greenhouse postemergence trial GALAP; format: in vivo; conditions: c1-3 Compound A 7.5/10/15; c4 Aminopyralid 5; c5-7 A 7.5/10/15 + Aminopyralid 5 g/ha
Description: as §1, §2, §3, §4

[5] = test system: Hordeum vulgare (winter barley, HORVW); assay: Greenhouse postemergence crop phytotoxicity HORVW; format: in vivo
[6] = test system: Kochia scoparia (kochia, KCHSC); assay: Greenhouse postemergence trial KCHSC; format: in vivo; conditions: Bassia scoparia, post-emergence; KCHSC; Aminopyralid 10 g/ha; read-out: % visual injury Obs
[7] = test system: Veronica persica (bird's-eye speedwell, VERPE); assay: Greenhouse postemergence trial VERPE; format: in vivo
Description: as §1, §2, §3, §4

[8] = test system: Veronica hederifolia (ivyleaf speedwell, VERHE); assay: Greenhouse postemergence trial VERHE; format: in vivo
[9] = test system: Triticum aestivum (winter wheat, TRZAW); assay: Greenhouse postemergence crop phytotoxicity TRZAW; format: in vivo
[10] = test system: Viola tricolor (wild pansy, VIOTR); assay: Greenhouse postemergence trial VIOTR;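 further: greenhouse plants sprayed at second to third true leaf stage, injury rated visually after 20-22 d against solvent-blank sprayed controls, 0 meaning no injury and 100 complete kill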
Description: as §1, §2, §3, §4

[11] = test system: Capsella bursa-pastoris (shepherd's purse, CAPBP); assay: Greenhouse postemergence trial CAPBP; format: in vivo
[12] = test system: Brassica napus (winter rape, BRSNW); assay: Greenhouse postemergence trial BRSNW; format: in vivo; conditions: Brassica napus, post-emergence, read-out: % visual injury Obs
[13] = test system: Viola arvensis (field violet, VIOAR); assay: Greenhouse postemergence trial VIOAR; format: in vivo
[14] = test system: Stellaria media (chickweed, STEME); assay: Greenhouse postemergence trial STEME; format: in vivo
[15] = test system: Cirsium arvense (Canadian thistle, CIRAR); assay: Greenhouse postemergence trial CIRAR; format: in vivo; conditions: Cirsium arvense, post-emergence; CIRAR; Aminopyralid 10 g/ha; read-out: % visual injury Obs
[16] = test system: Salsola kali (Russian thistle, SASKR); assay: Greenhouse postemergence trial SASKR; format: in vivo; conditions: Salsola kali, post-emergence; SASKR; Aminopyralid 10 g/ha; read-out: % visual injury Obs;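 further: greenhouse plants sprayed at second or third true leaf stage, injury rated by eye after 20-22 d against solvent-blank controls, 0 meaning no injury, 100 complete kill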
[17] = test system: Hordeum vulgare (spring barley, HORVS); format: in vivo
[18] = test system: Polygonum convolvulus (wild buckwheat, POLCO); assay: Greenhouse postemergence trial POLCO; format: in vivo; conditions: Fallopia convolvulus, post-emergence, read-out: % visual injury Obs
Description: as §1, §2, §3, §4

[19] = test system: Matricaria chamomilla (wild chamomile, MATCH); assay: Greenhouse postemergence trial MATCH; format: in vivo; conditions: Matricaria chamomilla, post-emergence; MATCH; Aminopyralid 10 g/ha; read-out: % visual injury Obs;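 further: greenhouse plants sprayed at second to third true leaf stage, injury rated by eye 20-22 d later versus solvent-blank controls on 0–100 scale, 0 no injury, 100 complete kill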
[20] = test system: Lamium purpureum (purple deadnettle, LAMPU); assay: Greenhouse postemergence trial LAMPU
[21] = test system: Papaver rhoeas (corn poppy, PAPRH); assay: Greenhouse postemergence trial PAPRH; format: in vivo
[22] = test system: Matricaria discoidea (pineapple weed, MATMT); assay: Greenhouse postemergence trial MATMT; format: in vivo
[23] = test system: Sinapis arvensis (wild mustard, SINAR); assay: Greenhouse postemergence trial SINAR; format: in vivo; conditions: Mutarda arvensis, post-emergence; SINAR; Aminopyralid 10 g/ha; read-out: % visual injury Obs
[24] = test system: Papaver rhoeas (corn poppy), herbicide-resistant (PAPRH-R); assay: Greenhouse postemergence trial PAPRH-R; format: in vivo
Description: as §1, §2, §3, §4

[25] = test system: Matricaria inodora (false chamomile, MATIN); assay: Greenhouse postemergence trial MATIN; format: in vivo
[26] = c1-3 Compound A 7.5/10/15, c4 Aminopyralid 5, c5-7 A 7.5/10/15 + Aminopyralid 5 g/ha
[27] = Papaver rhoeas, post-emergence, read-out: % visual injury Obs

Nc1cc(Cl)nc(C(=O)O)c1Cl [Aminopyralid, aminopyralid, reference compound]
% visual injury Obs ([1]; TRZAS, Aminopyralid 10 g/ha): 0% | % visual injury (crop phytotoxicity) [1, 26]: 0% | pest or weed control at 10 g/ha ([2]; Anthemis arvensis, post-emergence, read-out: % visual injury Obs): 60% | % visual injury [2, 26]: 10% | pest or weed control at 10 g/ha ([3]; Centaurea cyanus, post-emergence, read-out: % visual injury Obs): 65% | % visual injury [3, 26]: 50% | % visual injury [4]: 60% | % visual injury Obs ([5]; HORVW, Aminopyralid 10 g/ha): 0% | % visual injury (crop phytotoxicity) [5, 26]: 0% | pest or weed control at 10 g/ha [6]: 10% | pest or weed control at 10 g/ha ([7]; Veronica persica, post-emergence, read-out: % visual injury Obs): 10% | % visual injury [7, 26]: 0% | pest or weed control at 10 g/ha ([8]; Veronica hederifolia, post-emergence, read-out: % visual injury Obs): 25% | % visual injury [8, 26]: 0% | % visual injury Obs ([9]; TRZAW, Aminopyralid 10 g/ha): 0% | % visual injury (crop phytotoxicity) [9, 26]: 0% | pest or weed control at 10 g/ha ([10]; Viola tricolor, post-emergence, read-out: % visual injury Obs): 10% | % visual injury [10, 26]: 0% | pest or weed control at 10 g/ha ([11]; Capsella bursa-pastoris, post-emergence, read-out: % visual injury Obs): 0% | % visual injury [11, 26]: 0% | plant injury at 10 g/ha [12]: 10% | pest or weed control at 10 g/ha ([13]; Viola arvensis, post-emergence, read-out: % visual injury Obs): 10% | % visual injury [13, 26]: 25% | pest or weed control at 10 g/ha ([14]; Stellaria media, post-emergence, read-out: % visual injury Obs): 5% | % visual injury [14, 26]: 0% | pest or weed control at 10 g/ha [15]: 60% | pest or weed control at 10 g/ha [16]: 20% | % visual injury Obs ([17]; HORVS, Aminopyralid 10 g/ha): 0% | % visual injury (crop phytotoxicity) [17, 26]: 0% | pest or weed control at 10 g/ha [18]: 75% | pest or weed control at 10 g/ha [19]: 10% | pest or weed control at 10 g/ha ([20]; Lamium purpureum, post-emergence, read-out: % visual injury Obs): 10% | % visual injury [20, 26]: 0% | pest or weed control at 10 g/ha [21, 27]: 65% | % visual injury [21, 26]: 30% | pest or weed control at 10 g/ha ([22]; Matricaria discoidea, post-emergence, read-out: % visual injury Obs): 0% | % visual injury [22, 26]: 0% | pest or weed control at 10 g/ha [23]: 20% | pest or weed control at 10 g/ha [24, 27]: 65% | % visual injury [24, 26]: 50% | pest or weed control at 10 g/ha ([25]; Tripleurospermum inodorum, post-emergence, read-out: % visual injury Obs): 60% | % visual injury [25, 26]: 10%
